TGI data for 11 compounds are collected here from PubChem BioAssay (NCI).

What all share (experiment): growth of human tumour cells (NCI), 48 h
For experiment [1], the system named is KM12 colon.
The test system of experiment [2] is K-562 leukemia.
The subject of experiment [3] is SF-268 CNS.
For experiment [4], the system named is SK-MEL-28 melanoma.
For experiment [5], the system named is HT29 colon.
The test system of experiment [6] is BT-549 breast.
Experiment [7] deals with SF-539 CNS.
Experiment [8] has as its system SK-MEL-2 melanoma.
For experiment [9], the system named is TK-10 renal.
For experiment [10], the system named is SN12C renal.
In experiment [11] the test system is 786-0 renal.
For experiment [12], the system named is PC-3 prostate.
For experiment [13], the system named is UACC-257 melanoma.
Experiment [14] relates to UACC-62 melanoma.
Experiment [15] deals with OVCAR-5 ovarian.
Experiment [16] has as its system ACHN renal.
Experiment [17] concerns HOP-92 NSCLC.
Experiment [18] relates to HS 578T breast.
Experiment [19] deals with SK-OV-3 ovarian.
The subject of experiment [20] is SF-295 CNS.

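Five compound concentrations were applied to cells in 96-well plates for 48 hours; endpoints were derived by simple linear interpolation of the resulting dose-response curve. TGI: total growth inhibition.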

For the compound `Cc1cc(C)n(CN(Cn2nc(C)cc2C)c2ccccc2)n1`, the TGI in experiment [1] was found to be 42.6 µM; in experiment [2], 46.1 µM; in [3], 52.6 µM; in experiment [4] it was 34.7 µM; in [5] it was 35.6 µM; in [6] it was 69.2 µM. Further, the TGI is 38.3 µM in experiment [7]; 44.6 µM in experiment [8]; more than 100 µM in experiment [9]; 98.7 µM in experiment [10]; 48.5 µM in experiment [11]; more than 100 µM in experiment [12]. Besides, the TGI is 61 µM in experiment [13]; 26.5 µM in [14]; 69.6 µM in [15]; 51.5 µM in experiment [16]; more than 100 µM in [17]; more than 100 µM in [18]. The TGI in experiment [19] and in [20] was more than 100 µM in each case.
Take `Cc1cc2c(cc1C)C(=O)/C(=N/Nc1ccc(F)cc1)CCO2`: the TGI in experiment [1], in experiment [2], in experiment [3], in [4], in [5] and in experiment [6] was more than 100 µM in each case. Moreover, the TGI was more than 100 µM in [7]; 97 µM in [8]; more than 100 µM in experiment [9]; more than 100 µM in experiment [10]; more than 100 µM in [11]; more than 100 µM in experiment [12]. Further, the TGI in experiment [13], in experiment [14], in [15], in experiment [16], in experiment [17] and in experiment [18] was more than 100 µM in each case. Moreover, the TGI in [19] and in experiment [20] was more than 100 µM in each case.
Turning to `O=C(N/N=C(/COc1cccc(Cl)c1)N=Cc1cccnc1)c1ccncc1`, the TGI in experiment [1], in [2], in experiment [3], in experiment [4], in experiment [5] and in experiment [6] was more than 100 µM each time. Besides, the TGI in experiment [7], in experiment [8], in experiment [9], in [10], in experiment [11] and in experiment [12] was more than 100 µM in each case. Moreover, the TGI in [13] was more than 100 µM; in experiment [14], more than 100 µM; in [15], more than 100 µM; in experiment [16], more than 100 µM; in experiment [17] it was 89.7 µM; in experiment [18], more than 100 µM. In addition, the TGI in experiment [19] and in experiment [20] was more than 100 µM each time.
In the case of `COc1ccc(/C=C2/CCS(=O)(=O)c3ccc(C)cc3C2=O)cc1OC`, the TGI was 23 µM in experiment [1]; more than 100 µM in experiment [2]; more than 100 µM in [3]; 56.5 µM in [4]; 27.6 µM in experiment [5]; 35.6 µM in experiment [6]. The TGI in [7] was more than 100 µM; in experiment [8], 60.9 µM; in experiment [9], 37.5 µM; in experiment [10], 73.9 µM; in [11], 27.7 µM; in experiment [12], 58.9 µM. Besides, the TGI in experiment [13] was 25.4 µM; in experiment [14], 22.7 µM; in [15] it was more than 100 µM; in [16], 27.4 µM; in [17], 9.55 µM; in [18], 73.2 µM. The TGI was more than 100 µM in experiment [19] and 36 µM in experiment [20].
Turning to `CC1OC(O[C@H]2CC[C@]3(C=O)[C@H]4CC[C@]5(C)[C@H](C6=CC(=O)OC6)CC[C@]5(O)[C@@H]4C=C[C@]3(O)C2)CC(O)C1O` (stereo partly drawn), the TGI in experiment [1] amounted to 2.76 µM; in experiment [2] it was 9.01 µM; in [3] it was 0.589 µM; in experiment [4] it was 1.7 µM; in experiment [5], 1.5 µM; in experiment [6] it was 0.608 µM. In addition, the TGI in experiment [7] was found to be 0.488 µM; in [8] it was 1.14 µM; in experiment [9] it was 1.64 µM; in [10] it was 0.464 µM; in [11], 0.296 µM; in experiment [12], 0.657 µM. Also, the TGI worked out at 1.82 µM in [13]; 0.807 µM in experiment [14]; 1.42 µM in experiment [15]; 0.41 µM in experiment [16]; 2.62 µM in experiment [17]; 4.2 µM in experiment [18]. The TGI came to 1.02 µM in experiment [19] and 0.489 µM in experiment [20].
Turning to `COC(=O)C1C(C(=O)OC)C1(Br)CBr` (stereo not drawn), the TGI in experiment [1] was more than 100 µM; in experiment [3] it was more than 100 µM; in [4], more than 100 µM; in [5] it was 63.3 µM; in experiment [6], 94.3 µM; in experiment [7], more than 100 µM. The TGI was more than 100 µM in [8]; more than 100 µM in experiment [9]; 79.4 µM in experiment [10]; 36.3 µM in [11]; more than 100 µM in experiment [12]; more than 100 µM in [13]. For the same compound, the TGI was more than 100 µM in experiment [14]; more than 100 µM in [15]; 61.8 µM in [16]; 54.9 µM in [17]; more than 100 µM in experiment [18]; more than 100 µM in experiment [19]. This compound gave a TGI in [20] of more than 100 µM.
Take `OC(c1ccccc1)C(F)(F)c1nc2ccccc2o1` (stereo not drawn): the TGI in [1] was more than 100 µM; in [2], 75.3 µM; in experiment [3], more than 100 µM; in experiment [4], more than 100 µM; in experiment [5], more than 100 µM; in experiment [6] it was more than 100 µM. Also, the TGI in experiment [7], in experiment [8], in [9], in experiment [11], in experiment [12] and in [13] was more than 100 µM throughout. Further, the TGI in experiment [14], in experiment [16], in experiment [17], in experiment [18], in experiment [19] and in experiment [20] was more than 100 µM throughout.
On to `COC(=O)c1c(C(=O)OC)c2c3ccccc3n(C)c2c2c1c1ccccc1n2C`, for which the TGI in [1], in [2], in experiment [4], in [5], in experiment [6] and in [7] was more than 100 µM each time. Further, the TGI in [8], in [9], in experiment [10], in [11], in [12] and in experiment [13] was more than 100 µM each time. Besides, the TGI in [14], in experiment [15], in experiment [16], in experiment [17], in experiment [18] and in experiment [19] was more than 100 µM in each case. This compound gave a TGI in experiment [20] of more than 100 µM.
As to `C=CCn1cnc2c(=O)[nH]c(Nc3ccccc3)nc21`, the TGI in [1], in experiment [3], in [4], in experiment [5], in [6] and in [7] was more than 100 µM in each case. In addition, the TGI in experiment [8], in experiment [9], in experiment [10], in [11], in experiment [12] and in [13] was more than 100 µM throughout. The TGI in experiment [14], in [15], in [16], in [17], in experiment [18] and in experiment [19] was more than 100 µM each time. This compound showed a TGI in experiment [20] of more than 100 µM.
For the compound `C=C1CC(COc2ccc3c(C)cc(=O)oc3c2)(c2ccccc2)OC1=O` (stereo not drawn), the TGI in experiment [1] is more than 27.7 µM; in experiment [3], 23.9 µM; in experiment [4], 8.37 µM; in [5], 2.96 µM; in experiment [6], 3.18 µM; in experiment [7] it was 5.05 µM. For the same compound, the TGI in experiment [8] was 3.65 µM; in experiment [9], 3.42 µM; in experiment [10] it was 21.1 µM; in [11], 2.79 µM; in experiment [12], 5.78 µM; in experiment [13], 3.9 µM. Also, the TGI is 3.05 µM in experiment [14]; 24.5 µM in experiment [15]; 7.3 µM in experiment [16]; 1.56 µM in experiment [17]; more than 27 µM in experiment [18]; 14.9 µM in [19]. Also, in experiment [20], the TGI amounted to 23 µM.
On to `COC(=O)[C@@H]1Cc2cc(O)c(O)cc2C2(CCN(C)CC2)O1`, for which the TGI in experiment [1], in [3], in experiment [4], in experiment [5], in [6] and in experiment [7] was more than 10 µM throughout. In addition, the TGI in experiment [8], in experiment [9], in experiment [10], in experiment [11], in experiment [12] and in experiment [13] was more than 10 µM each time. The TGI in experiment [14], in experiment [15], in [16], in experiment [17], in experiment [18] and in experiment [19] was more than 10 µM in each case. For the same compound, in experiment [20], the TGI was more than 10 µM.
